Tests used:
[1] = biological target: Matrix metalloproteinase-9 (Homo sapiens, UniProt P14780); experiment: Inhibition of Matrix metalloprotease-9 (MMP-9)
Interstitial collagenase = biological target: T1, Interstitial collagenase (Homo sapiens, UniProt P03956); experiment: Inhibition of Matrix metalloprotease-1 (MMP-1)
T1 sequence (P03956 whole entry): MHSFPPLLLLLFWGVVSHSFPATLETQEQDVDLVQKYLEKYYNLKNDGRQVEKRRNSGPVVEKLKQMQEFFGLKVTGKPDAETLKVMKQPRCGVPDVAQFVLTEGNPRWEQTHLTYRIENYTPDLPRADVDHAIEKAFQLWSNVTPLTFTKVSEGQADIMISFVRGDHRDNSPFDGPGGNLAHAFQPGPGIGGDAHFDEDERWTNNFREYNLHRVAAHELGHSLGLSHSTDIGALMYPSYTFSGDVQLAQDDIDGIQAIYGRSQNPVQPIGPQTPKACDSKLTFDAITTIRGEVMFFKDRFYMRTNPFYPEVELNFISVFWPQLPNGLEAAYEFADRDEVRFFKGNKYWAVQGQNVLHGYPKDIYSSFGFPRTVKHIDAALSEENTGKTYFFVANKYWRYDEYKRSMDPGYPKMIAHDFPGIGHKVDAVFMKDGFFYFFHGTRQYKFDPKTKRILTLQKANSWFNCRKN

Neutrophil collagenase = Neutrophil collagenase (Homo sapiens, UniProt P22894); experiment: Inhibition of Matrix metalloprotease-8 (MMP-8)
Stromelysin-1 = Stromelysin-1 (Homo sapiens, UniProt P08254); experiment: Inhibition of Matrix metalloprotease-3 (MMP-3)
Chain of Stromelysin-1 (P08254 whole entry): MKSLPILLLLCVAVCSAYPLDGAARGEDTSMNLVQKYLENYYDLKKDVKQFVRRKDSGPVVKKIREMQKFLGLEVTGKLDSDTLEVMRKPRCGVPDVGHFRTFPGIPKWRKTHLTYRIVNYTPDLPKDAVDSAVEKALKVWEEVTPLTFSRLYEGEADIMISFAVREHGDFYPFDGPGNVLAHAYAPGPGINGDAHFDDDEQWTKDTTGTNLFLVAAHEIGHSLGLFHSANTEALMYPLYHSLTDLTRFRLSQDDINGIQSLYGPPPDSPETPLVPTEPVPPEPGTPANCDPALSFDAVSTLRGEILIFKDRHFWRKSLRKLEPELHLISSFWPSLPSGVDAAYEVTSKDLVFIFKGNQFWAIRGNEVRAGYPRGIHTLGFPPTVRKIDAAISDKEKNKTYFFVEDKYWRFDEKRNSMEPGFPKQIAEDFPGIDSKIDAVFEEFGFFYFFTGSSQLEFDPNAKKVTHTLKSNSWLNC

Chain of Matrix metalloproteinase-9 (P14780 whole entry): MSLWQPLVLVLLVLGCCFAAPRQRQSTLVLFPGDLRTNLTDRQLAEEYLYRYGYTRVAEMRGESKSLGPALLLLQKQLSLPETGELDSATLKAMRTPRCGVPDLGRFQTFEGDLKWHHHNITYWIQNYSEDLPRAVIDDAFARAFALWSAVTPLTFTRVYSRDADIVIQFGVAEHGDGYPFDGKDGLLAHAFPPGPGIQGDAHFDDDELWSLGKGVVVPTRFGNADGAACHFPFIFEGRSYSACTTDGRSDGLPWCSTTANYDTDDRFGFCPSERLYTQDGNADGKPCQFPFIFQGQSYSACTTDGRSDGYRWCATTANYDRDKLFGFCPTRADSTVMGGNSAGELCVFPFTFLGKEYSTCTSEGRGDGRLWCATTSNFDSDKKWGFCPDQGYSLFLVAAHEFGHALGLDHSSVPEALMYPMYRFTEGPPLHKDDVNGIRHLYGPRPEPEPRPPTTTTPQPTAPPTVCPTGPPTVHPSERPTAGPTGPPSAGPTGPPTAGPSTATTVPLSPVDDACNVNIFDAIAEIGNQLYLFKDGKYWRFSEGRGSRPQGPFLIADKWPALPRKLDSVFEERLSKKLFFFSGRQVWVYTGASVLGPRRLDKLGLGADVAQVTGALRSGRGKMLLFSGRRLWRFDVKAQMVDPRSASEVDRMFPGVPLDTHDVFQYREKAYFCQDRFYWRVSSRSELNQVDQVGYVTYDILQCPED
Chain of Neutrophil collagenase (P22894 whole entry): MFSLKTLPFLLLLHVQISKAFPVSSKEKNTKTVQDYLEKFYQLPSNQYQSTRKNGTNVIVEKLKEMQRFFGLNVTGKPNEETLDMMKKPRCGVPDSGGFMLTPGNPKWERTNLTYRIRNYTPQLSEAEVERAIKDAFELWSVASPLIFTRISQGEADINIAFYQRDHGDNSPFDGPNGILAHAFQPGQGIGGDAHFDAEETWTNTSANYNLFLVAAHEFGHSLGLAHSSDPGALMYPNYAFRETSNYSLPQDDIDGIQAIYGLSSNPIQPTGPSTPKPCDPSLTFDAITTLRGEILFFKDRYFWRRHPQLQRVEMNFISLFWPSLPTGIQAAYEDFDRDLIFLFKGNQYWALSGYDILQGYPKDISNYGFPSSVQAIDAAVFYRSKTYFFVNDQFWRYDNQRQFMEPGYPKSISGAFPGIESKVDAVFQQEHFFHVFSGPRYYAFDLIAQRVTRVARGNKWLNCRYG

Row | Ki [1] | Ki (Interstitial collagenase) | Ki (Neutrophil collagenase) | Ki (Stromelysin-1) | SMILES
1 | 13 nM | 440 nM | 7 nM | 267 nM | CNC(=O)[C@@H]1CCCN(C(C)=O)CC(C)CO[C@H](C(=O)NO)[C@@H](CCCc2ccccc2)C(=O)N1 (some centres not stated)
2 | 21 nM | 496 nM | 4 nM | 265 nM | CNC(=O)[C@@H]1CCCNCCCCO[C@H](C(=O)NO)[C@@H](CCCc2ccccc2)C(=O)N1
3 | 2 nM | 110 nM |  |  | CNC(=O)[C@@H]1CCCN(S(=O)(=O)c2ccccc2)CCCCO[C@H](C(=O)NO)[C@@H](CCCc2ccccc2)C(=O)N1
4 | 19 nM | 1070 nM | 13 nM | 373 nM | CNC(=O)[C@@H]1CCCN(C(=O)OC(C)(C)C)CCCCO[C@H](C(=O)NO)[C@@H](CCCc2ccccc2)C(=O)N1
5 | 6 nM | 248 nM |  | 38 nM | CNC(=O)[C@@H]1CCCN(C(C)=O)CCCCO[C@H](C(=O)NO)[C@@H](CCCc2ccccc2)C(=O)N1

Source: ChEMBL document CHEMBL1131722, “P1, P2'-linked macrocyclic amine derivatives as matrix metalloproteinase inhibitors” (Bioorg Med Chem Lett, 1999)
